These results are taken from PubChem BioAssay (NCI).

Some test systems named below: OVCAR-8 ovarian; HCT-15 colon; XF 498 CNS; HL-60(TB) leukemia; SN12C renal; CCRF-CEM leukemia; KM20L2 colon; ACHN renal; 786-0 renal; SR leukemia.
Holding throughout (experiment): inhibition of tumour cell growth, NCI panel, 48 h

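Protocol summary: plate cells (96-well), add compound at 5 concentrations, incubate 48 h, interpolate endpoints linearly. The concentration for 50% growth inhibition is given as GI50. TGI marks complete inhibition of growth.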

Regarding `CCOCC(=O)N(C)c1cccc2c3c(n(C)c12)CCCCC3`, the TGI in the assay on OVCAR-8 ovarian, in the assay with HCT-15 colon, with XF 498 CNS, in the assay with HL-60(TB) leukemia, in the assay with SN12C renal and in the assay on CCRF-CEM leukemia was greater than 100000 nM each time. Also, the TGI with KM20L2 colon is greater than 100000 nM.

Turning to `Cn1c2[n+](c3nc(N)[nH]c(=O)c31)C1OC(C2)C(O)C1O` (stereo not drawn), the TGI in the assay with OVCAR-8 ovarian, in the assay with ACHN renal, with 786-0 renal, in the assay on XF 498 CNS, in the assay on HL-60(TB) leukemia and with SN12C renal was greater than 100000 nM throughout. Besides, the TGI with CCRF-CEM leukemia, with SR leukemia and in the assay on KM20L2 colon was greater than 100000 nM each time.

Regarding `COc1cccc(/C=N/[N-]C(N)=O)c1[O-].[Ni+2].[OH3+]`, the TGI in the assay with OVCAR-8 ovarian was determined as 1660 nM; in the assay with HCT-15 colon, 1170 nM; in the assay on ACHN renal it was 2070 nM; with 786-0 renal, 474 nM; in the assay with XF 498 CNS, 331 nM; in the assay with HL-60(TB) leukemia it was 860 nM. The TGI in the assay with SN12C renal worked out at 1490 nM; with CCRF-CEM leukemia, 1480 nM; in the assay with SR leukemia, 2640 nM; with KM20L2 colon, 2150 nM. Further, the GI50 was 152 nM with XF 498 CNS and 111 nM in the assay on HL-60(TB) leukemia.
